Residues, ends and D or L forms follow the SMILES beside them.
Assays:
[1] = tested on: Insig1 pS207/Insig2 pS151, SREBP1, Ki67; experiment: IHC analysis of mouse tumors derived from Huh7 cells; format: in vivo, BALB/c athymic nude mice; conditions: peptide given as LNP@Insig1/2 loop 1 peptide 10 mg/kg iv, lenvatinib mesylate 2 mg/kg oral
Protocol: (§1) Representative micrographs are shown (scale bar: 20 µm). b,c) Cryosections of mouse tumor tissues were prepared for histological analysis. (b) Lipid accumulation was assessed by Oil Red O staining. Representative micrographs are shown (scale bar: 20 µm). (c) Apoptotic cells were detected by TUNEL assay. Representative micrographs are shown (scale bar: 20 µm). d,e) Quantitative analysis of (d) apoptotic areas (TUNEL‐positive regions) and (e) lipid droplet counts (Oil Red O‐positive particles) was performed. Data represent the mean ± SD (n = 4). Statistical significance was determined by one‐way analysis of variance (ANOVA). ** p < 0.01, **** p < 0.0001, ns, no significance.
As described previously,^[ [39] ^] IHC staining was performed using the Vectastain ABC kit (Vector Laboratories) according to the manufacturer's instructions. Sections of paraffin‐embedded xenograft tumors were stained with antibodies against Ki67, SREBP1, Insig1 pS207/Insig2 pS151, and nonspecific IgG was used as a negative control. Paraffin‐embedded human liver tumor sections were stained with antibodies against Ki67, SREBP1, Insig1 pS207/Insig2 pS151, with nonspecific IgG as a negative control. The tissue sections were quantitatively scored according to the percentage of positive cells and staining intensity. […] The intensity of staining was rated on a scale of 0 to 3: 0, negative; 1, weak; 2, moderate; and 3, strong. The study then combined the proportion and intensity scores to obtain a total score (range, 0–8).

[2] = tested on: lipid accumulation in tumor tissues; experiment: Oil Red O staining of tumor tissues; format: in vivo, BALB/c athymic nude mice; conditions: cryosections of Huh7 tumors, n = 4; peptide given as LNP 10 mg/kg iv; lenvatinib mesylate 2 mg/kg oral
Protocol: as §1
Cryosections 6–8 µm in thickness were air‐dried and fixed with formaldehyde for 5–10 min. Then, the slides were placed in absolute propylene glycol for 2–5 min and stained with 0.5% Oil red O dye. After staining, the slides were rinsed, counterstained with Mayer's hematoxylin for 1 min, and mounted in glycerin.

tumor cell apoptosis = experiment: TUNEL assay of tumor tissues; format: in vivo, BALB/c athymic nude mice; conditions: cryosections of Huh7 tumors, n = 4; peptide given as LNP 10 mg/kg iv; lenvatinib mesylate 2 mg/kg oral
Protocol: as §1
Mouse tumor tissues were sectioned at 5 µm thickness. Apoptotic cells were counted using the colorimetric TUNEL System (Beyotime, C1091) according to the manufacturer's instructions. The total numbers of apoptotic cells were counted in six high‐power fields and presented as an average number of apoptotic cells per high‐power fields.

Huh7 cells = experiment: Cellular peptide uptake, western blot; format: in vitro ADME, human; conditions: biotin-labeled peptide 15 μM, 30 min, TAT versus TAT-LOF sequence
Protocol: d) Huh7 cells were incubated for 30 min with biotin-labeled Insig1/2 loop1 peptide (15 μM), either with TAT or TAT loss of function (TAT-LOF) sequence, with subsequent western blot analysis of cellular peptide uptake.

[3] = target: T1, S90-phosphorylated GST-PCK1 (human, UniProt P35558 1-622, phosphoserine at 90; biotin (G-MM-IGT Biotinylation kit)); experiment: BLI; phosphorylated S90
T1 chain: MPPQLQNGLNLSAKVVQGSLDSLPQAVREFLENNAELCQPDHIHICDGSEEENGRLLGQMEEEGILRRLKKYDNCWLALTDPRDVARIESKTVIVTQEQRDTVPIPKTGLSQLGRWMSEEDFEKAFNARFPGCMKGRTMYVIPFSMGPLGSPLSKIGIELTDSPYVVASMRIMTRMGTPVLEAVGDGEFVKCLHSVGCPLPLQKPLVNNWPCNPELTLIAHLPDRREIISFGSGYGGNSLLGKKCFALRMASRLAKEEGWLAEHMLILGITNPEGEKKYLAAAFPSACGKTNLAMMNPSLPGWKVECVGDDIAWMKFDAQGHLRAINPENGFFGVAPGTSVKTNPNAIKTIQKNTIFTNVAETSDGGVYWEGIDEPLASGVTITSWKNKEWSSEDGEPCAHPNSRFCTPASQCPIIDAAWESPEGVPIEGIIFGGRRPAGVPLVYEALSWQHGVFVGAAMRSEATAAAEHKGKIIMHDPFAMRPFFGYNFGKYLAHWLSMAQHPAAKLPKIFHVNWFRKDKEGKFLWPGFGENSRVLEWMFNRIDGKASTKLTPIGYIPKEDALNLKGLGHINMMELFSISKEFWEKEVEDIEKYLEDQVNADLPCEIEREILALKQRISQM

WT GST-PCK1 = target: T2, WT GST-PCK1 (human, UniProt P35558 1-622, biotin (G-MM-IGT Biotinylation kit)); experiment: BLI
T2 chain: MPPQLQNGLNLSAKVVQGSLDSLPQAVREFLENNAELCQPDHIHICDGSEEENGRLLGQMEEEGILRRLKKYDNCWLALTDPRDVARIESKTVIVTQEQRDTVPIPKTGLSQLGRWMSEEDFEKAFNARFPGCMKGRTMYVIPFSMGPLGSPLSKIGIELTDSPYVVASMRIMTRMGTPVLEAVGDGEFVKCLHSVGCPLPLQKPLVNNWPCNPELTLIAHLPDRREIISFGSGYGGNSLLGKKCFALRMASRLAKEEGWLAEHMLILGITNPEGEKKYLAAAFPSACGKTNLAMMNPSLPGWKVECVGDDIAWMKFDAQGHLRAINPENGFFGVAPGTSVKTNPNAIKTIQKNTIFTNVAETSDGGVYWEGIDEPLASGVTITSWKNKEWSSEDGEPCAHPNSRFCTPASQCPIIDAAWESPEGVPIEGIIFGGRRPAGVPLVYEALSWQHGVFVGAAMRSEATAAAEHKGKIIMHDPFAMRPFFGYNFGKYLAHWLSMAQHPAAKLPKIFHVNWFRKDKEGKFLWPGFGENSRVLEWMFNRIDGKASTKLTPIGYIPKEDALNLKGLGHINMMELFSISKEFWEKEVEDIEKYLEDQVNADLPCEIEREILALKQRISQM

`COc1cc2nccc(Oc3ccc(NC(=O)NC4CC4)c(Cl)c3)c2cc1C(N)=O` [lenvatinib, reference compound] was tested, and the “Insig1 S207/Insig2 S151 phosphorylation in tumors” value [1] was “reductions were also observed”, the “Ki67 expression in tumors” value [1] was “reductions were also observed” and the “SREBP1 expression and nuclear accumulation in tumors” value [1] was “reductions were also observed”. The “lipid accumulation in tumor tissues (Oil Red O)” value [2] was “reductions were also observed” and the “cell apoptosis in tumor tissues (TUNEL)” value (tumor cell apoptosis) was “induced cell apoptosis in tumor tissues”.

In the case of `CC[C@H](C)[C@H](NC(=O)[C@H](CS)NC(=O)[C@@H]1CCCN1C(=O)[C@H](Cc1ccc(O)cc1)NC(=O)[C@H](CC(C)C)NC(=O)CCCC[C@@H]1SC[C@@H]2NC(=O)N[C@@H]21)C(=O)N[C@@H](CC(=O)O)C(=O)N[C@@H](CO)C(=O)N[C@@H](Cc1c[nH]cn1)C(=O)N[C@@H](CC(C)C)C(=O)NCC(=O)N[C@@H](CCC(=O)O)C(=O)N1CCC[C@H]1C(=O)N[C@@H](Cc1c[nH]cn1)C(=O)N[C@@H](CCCCN)C(=O)N[C@@H](Cc1ccccc1)C(=O)N[C@@H](CCCCN)C(=O)N[C@@H](CCCNC(=N)N)C(=O)N[C@@H](CCC(=O)O)C(=O)N[C@@H](C)C(=O)N[C@@H](C)C(=O)N[C@@H](CCC(=O)O)C(=O)N[C@@H](C)C(=O)N[C@@H](C)C(=O)N[C@@H](CCC(N)=O)C(=O)N[C@@H](C)C(=O)N[C@@H](C)C(=O)N[C@@H](CCC(=O)O)C(=O)O` [Biotin‐peptide‐TAT LOF] (HELM PEPTIDE1{[O=C1N[C@H]2[C@H](CS[C@H]2CCCCC(=O)[*:2])N1].L.Y.P.C.I.D.S.H.L.G.E.P.H.K.F.K.R.E.A.A.E.A.A.Q.A.A.E}$$$$V2.0), the “peptide accumulation in tumor cells in vitro” value (Huh7 cells) is reported as “substantially reduced peptide accumulation”.

LYPCIDSHLGEPHKFKRE [Insig1/2 loop 1 peptide (143-LYPCIDSHLGEPHKFKRE-160)] was tested, and the Kd [3] was 10.5 µM and the Kd (WT GST-PCK1) was 36.8 µM.
